Assay results: patent US20260256792A1, “TREATMENT OF CHRONIC SPONTANEOUS URTICARIA BY ADMINISTERING (R)-2-[3-[4-AMINO-3-(2-FLUORO-4-PHENOXY-PHENYL)PYRAZOLO[3,4-D]PYRIMIDIN-1-YL]PIPERIDINE-1-CARBONYL]-4-METHYL-4-[4-(OXETAN-3-YL)PIPERAZIN-1-YL]PENT-2-ENENITRILE” (priority 2023, published 2026)

Tested on: moderate-to-severe chronic spontaneous urticaria (CSU)
Assay: Phase 2 CSU study: urticaria activity score over 7 days (UAS7)
Type: in vivo, human
Set-up: key to UAS7 Median / UAS7 Change from baseline Median / UAS7 change from baseline, Q1 / UAS7 change from baseline, Q3 / UAS7 change from baseline, Max / UAS7 Change from baseline LS Mean (SE): UAS7 points; daily UAS score ranges 0–6 points/day, over 7 days
Description: The study comprises a 12 week, randomized, double-blind, placebo-controlled, multi-center, dose-ranging efficacy and safety phase, followed by a 40 week open label extension (OLE) phase (see FIG. 1). The study consists of three phases and an optional OLE phase. […] Clinically, CSU is characterized by the spontaneous and recurrent appearance of pruritic hives. The proposed primary endpoints were the UAS7 at Week 12 in EU and EU reference countries and the ISS7 in the US. Regardless of where a participant was from, all assessments were the same. The UAS7 score is a composite score containing both the HSS7 and the ISS7. This allowed a global assessment of the two key components of urticaria: hives and itch. […] The UAS is a validated PRO measure. […] The daily UAS scores range from 0 to 6 point/day. […] Patients were to complete the UAS using the e-diary. […] The following secondary endpoints were to be analyzed using the same approach as for the primary endpoint: • Change from baseline in UAS7 at Week 4 • Change from baseline in UAS7 at Week 12 (for US and US reference countries) • Change from baseline in ISS7 at Week 12 (except US and US reference countries) • Change from baseline in HSS7 at Week 12 The following responder secondary endpoints were to be analyzed using the Cochran-Mantel-Haenszel test adjusted by region: • Proportion of participants with UAS7<6 at Week 12 • Proportion of participants with UAS7=0 at Week 12 Participants who received selected prohibited medications and/or rescue medications were to be considered as non-responders for time points after the medication usage. For other participants, all available data including those collected during the off-treatment period were to be used to determine the responder/non-responder status. Missing data were to be considered as non-responders.

[1] = Week 9, 400 mg QPM, Prior Omalizumab Use
[2] = Week 9, 400 mg QPM, omalizumab-naive participants
[3] = Week 9, 400 mg TID, ITT population
[4] = Week 9, 400 mg TID, Omalizumab-Naïve
[5] = Week 9, 400 mg TID, Prior Omalizumab Use
[6] = Week 9, 400 mg TID, omalizumab-naive participants
[7] = Week 10, 400 mg BID, ITT population
[8] = Week 10, 400 mg BID, Omalizumab-Naïve
[9] = Week 10, 400 mg BID, Prior Omalizumab Use
[10] = Week 10, 400 mg BID, omalizumab-naive participants
[11] = Week 10, 400 mg QPM, ITT population
[12] = Week 10, 400 mg QPM, Omalizumab-Naïve
[13] = Week 10, 400 mg QPM, Prior Omalizumab Use
[14] = Week 10, 400 mg QPM, omalizumab-naive participants

CC(C)(C=C(C#N)C(=O)N1CCC[C@@H](n2nc(-c3ccc(Oc4ccccc4)cc3F)c3c(N)ncnc32)C1)N1CCN(C2COC2)CC1 [rilzabrutinib, (R)-2-[3-[4-amino-3-(2-fluoro-4-phenoxy-phenyl)pyrazolo[3,4-d]pyrimidin-1-yl]piperidine-1-carbonyl]-4-methyl-4-[4-(oxetan-3-yl)piperazin-1-yl]pent-2-enenitrile]
UAS7 Change from baseline Mean (SD) [1]: −23.00 (NC)
UAS7 Change from baseline Median [1]: −23.00
UAS7 Mean (SD) [1]: 18.00 (NC)
UAS7 Median [1]: 18.00
UAS7 Percent change from baseline Mean (SD) [1]: −56.10 (NC) %
UAS7 Percent change from baseline Median [1]: −56.10%
Non-responder, UAS7 reduction from baseline of 10 points or more [2]: 20 (54.1) n (%)
OR for rilzabrutinib vs. placebo, UAS7 reduction of 10 points or more [2]: 1.522
RRD (%) for rilzabrutinib vs. placebo, UAS7 reduction of 10 points or more [2]: 9.7 %
Responder, UAS7 reduction from baseline of 10 points or more [2]: 17 (45.9) n (%)
Non-responder, UAS7 reduction from baseline of 10 points or more [3]: 13 (31.7) n (%)
OR for rilzabrutinib vs. placebo, UAS7 reduction of 10 points or more [3]: 3.243
RRD (%) for rilzabrutinib vs. placebo, UAS7 reduction of 10 points or more [3]: 26.2 %
Responder, UAS7 reduction from baseline of 10 points or more [3]: 28 (68.3) n (%)
UAS7 Change from baseline Mean (SD) [4]: −17.88 (11.04)
UAS7 Change from baseline Median [4]: −17.00
UAS7 Mean (SD) [4]: 12.57 (9.72)
UAS7 Percent change from baseline Mean (SD) [4]: −57.42 (32.58) %
UAS7 Percent change from baseline Median [4]: −60.00%
UAS7 Change from baseline Median [5]: −24.92
UAS7 Median [5]: 4.00
UAS7 Percent change from baseline Mean (SD) [5]: −77.44 (25.29) %
UAS7 Percent change from baseline Median [5]: −85.78%
Non-responder, UAS7 reduction from baseline of 10 points or more [6]: 12 (34.3) n (%)
OR for rilzabrutinib vs. placebo, UAS7 reduction of 10 points or more [6]: 3.460
RRD (%) for rilzabrutinib vs. placebo, UAS7 reduction of 10 points or more [6]: 29.2 %
Responder, UAS7 reduction from baseline of 10 points or more [6]: 23 (65.7) n (%)
Non-responder, UAS7 reduction from baseline of 10 points or more [7]: 20 (48.8) n (%)
RRD (%) for rilzabrutinib vs. placebo, UAS7 reduction of 10 points or more [7]: 2.8 %
Responder, UAS7 reduction from baseline of 10 points or more [7]: 21 (51.2) n (%)
UAS7 Change from baseline Mean (SD) [8]: −14.01 (11.59)
UAS7 Change from baseline Median [8]: −14.50
UAS7 Mean (SD) [8]: 15.22 (14.36)
UAS7 Median [8]: 13.50
UAS7 Percent change from baseline Mean (SD) [8]: −50.88 (41.19) %
UAS7 Percent change from baseline Median [8]: −51.79%
UAS7 Change from baseline Mean (SD) [9]: −19.40 (18.66)
UAS7 Change from baseline Median [9]: −23.00
UAS7 Mean (SD) [9]: 12.60 (14.98)
UAS7 Median [9]: 4.00
UAS7 Percent change from baseline Mean (SD) [9]: −55.61 (51.03) %
UAS7 Percent change from baseline Median [9]: −85.19%
Non-responder, UAS7 reduction from baseline of 10 points or more [10]: 17 (48.6) n (%)
OR for rilzabrutinib vs. placebo, UAS7 reduction of 10 points or more [10]: 1.312
RRD (%) for rilzabrutinib vs. placebo, UAS7 reduction of 10 points or more [10]: 7.2 %
Responder, UAS7 reduction from baseline of 10 points or more [10]: 18 (51.4) n (%)
Non-responder, UAS7 reduction from baseline of 10 points or more [11]: 19 (50.0) n (%)
OR for rilzabrutinib vs. placebo, UAS7 reduction of 10 points or more [11]: 1.159
RRD (%) for rilzabrutinib vs. placebo, UAS7 reduction of 10 points or more [11]: 3.5 %
Responder, UAS7 reduction from baseline of 10 points or more [11]: 19 (50.0) n (%)
UAS7 Change from baseline Mean (SD) [12]: −11.73 (10.20)
UAS7 Change from baseline Median [12]: −10.00
UAS7 Mean (SD) [12]: 20.27 (10.69)
UAS7 Median [12]: 17.00
UAS7 Percent change from baseline Mean (SD) [12]: −36.15 (29.79) %
UAS7 Percent change from baseline Median [12]: −36.70%
UAS7 Change from baseline Mean (SD) [13]: −25.00 (NC)
UAS7 Change from baseline Median [13]: −25.00
UAS7 Mean (SD) [13]: 16.00 (NC)
UAS7 Median [13]: 16.00
UAS7 Percent change from baseline Mean (SD) [13]: −60.98 (NC) %
UAS7 Percent change from baseline Median [13]: −60.98%
Non-responder, UAS7 reduction from baseline of 10 points or more [14]: 19 (51.4) n (%)
OR for rilzabrutinib vs. placebo, UAS7 reduction of 10 points or more [14]: 1.190
RRD (%) for rilzabrutinib vs. placebo, UAS7 reduction of 10 points or more [14]: 4.1 %
Responder, UAS7 reduction from baseline of 10 points or more [14]: 18 (48.6) n (%)
